The values below come from PMC2568956, “The Antimicrobial Peptide Histatin-5 Causes a Spatially Restricted Disruption on the Candida albicans Surface, Allowing Rapid Entry of the Peptide into the Cytoplasm” (PLoS Pathogens, 2008).

The conditions of assay [1]: liposome model system; cited from earlier work. As to the method:
Histatins are a family of low-molecular weight histidine-rich cationic peptides that are found specifically in human salivary secretions. […] It kills C. albicans in vitro at physiological concentrations (15–30 µM),[4]. Structural studies of Hst-5 have shown that it takes on a random coil structure in aqueous solvents and adopts a largely α-helical conformation in non-aqueous solutions [5],[6]. Many antimicrobial cationic peptides form either α ...

Assay [2] relates to C. glabrata. As to conditions: cited from earlier work.
The subject of assay [3] is C. albicans vps36 and snf7 mutant cells. The assay can be described thus: Hst-5 localization in vps36 and snf7 mutant cells by fluorescence microscopy. In kind it is cell-based, Candida albicans. Particulars: 10 µM FITC-Hst-5 and 10 µM FM4-64, 30 minutes, 30°C. As to the method:
(§1) The intracellular localization of FITC-Hst-5 (5, 10, 20, and 50 µM) and FITC-m68 (5, 10, 20, 50, and 200 µM) was investigated either alone or in a double-labeling experiment using FM4-64 (Molecular Probes, Inc. Eugene, OR). Yeast cells in 50 µl (∼10^6 cells/ml) were incubated for 30 minutes at 30°C with 10 µM FITC-Hst-5 and 10 µM FM4-64; the cells were then washed twice with 10 mM NaN3 and 10 mM NaF in 20 mM PBS buffer, and analyzed immediately by wide-field fluorescence microscopy.
(§2) Wide-field fluorescence images were obtained on either Zeiss Axioplan 2 or the inverted Zeiss Axio Observer.Z1 Microscope (Carl Zeiss MicroImaging, Inc. Thornwood, NY) fluorescent system, equipped with the AttoArc HBO 100 and the X-Cite series 120 mercury lamps, respectively. Images were taken using a 100× NA 1.4 objective. Both fluorescence microscopes were equipped with GFP, RFP, and DAPI filter sets.

For the next assay, the system named is C. albicans. On the set-up: method as in 4 sources, one per row (each row's own in cited_ref): ref 3, 4 = [3]; PMID 2406266; 3 Raj PA Edgerton M Levine MJ 1990 Salivary histatin 5: dependence of sequence, chain length, and helical conformation for candidacidal activity. J Biol Chem 265 3898 3905 2406266 || [4]; PMID 1855975; doi:10.1128/iai.59.8.2549-2554.1991; 4 Xu T Levitz SM Diamond RD Oppenheim FG 1991 Anticandidal activity of major human salivary histatins. Infect Immun 59 2549 2554 1855975 10.1128/iai.59.8.2549-2554.1991 PMC258054 ||| ref 37 = [37]; PMID 8945538; doi:10.1128/iai.64.12.5000-5007.1996; 37 Tsai H Raj PA Bobek LA 1996 Candidacidal activity of recombinant human salivary histatin-5 and variants. Infect Immun 64 5000 5007 8945538 10.1128/iai.64.12.5000-5007.1996 PMC174480 ||| ref 10, 13, 49 = [10]; PMID 10066791; doi:10.1074/jbc.274.11.7286; 10 Helmerhorst EJ Breeuwer P van't Hoff W Walgreen-Weterings E Oomen LC 1999 The cellular target of histatin 5 on Candida albicans is the energized mitochondrion. J Biol Chem 274 7286 7291 10066791 10 || [13]; PMID 10471575; doi:10.1128/aac.43.9.2256; 13 Xu Y Ambudkar I Yamagishi H Swaim W Walsh TJ 1999 Histatin 3-mediated killing of Candida albicans : effect of extracellular salt concentration on binding and internalization. Antimicrob Agents Chem || [49]; PMID 11083804; doi:10.1128/iai.68.12.6848-6856.2000; 49 Koshlukova SE Araujo MW Baev D Edgerton M 2000 Released ATP is an extracellular cytotoxic mediator in salivary histatin 5-induced killing of Candida albicans . Infect Immun 68 6848 6856 11083804 10 ||| ref 65, 66 = [65]; PMID 11204768; doi:10.1023/a:1026572128004; 65 van't Hoff W Reijnders I Helmerhorst E Walgreen-Weterings E Simoons-Smit I 2000 Synergistic effects of low doses of histatin 5 and its analogues on amphotericin B anti-mycotic activity. Antonie Van || [66]; PMID 16291868; doi:10.1093/jac/dki402; 66 Tanida T Okamoto T Ueta E Yamamoto T Osaki T 2006 Antimicrobial peptides enhance the candidacidal activity of antifungal drugs by promoting the efflux of ATP from Candida cells. J Antimicrob Chemot. As to conditions: cited from earlier work.

The test system of assay [4] is S. cerevisiae. Particulars: cited from earlier work.
Assay [5] relates to C. glabrata. The assay can be described thus: FITC-Hst-5 localization in C. glabrata by fluorescence microscopy. As to conditions: 50 µM FITC-Hst-5, 30 minutes, 30°C, fixed exposure time 9 ms. Type of assay: cell-based, Candida glabrata. As to the method: as §1, §2
In assay [6] the test system is C. albicans cells. As to the kind of experiment: Hst-5 localization studies by fluorescence microscopy. In kind it is cell-based, Candida albicans. On the procedure: as §1, §2
Assay [7] deals with S. cerevisiae. The assay can be described thus: FITC-Hst-5 localization in S. cerevisiae by fluorescence microscopy. In kind it is cell-based, Saccharomyces cerevisiae. As to conditions: 50 µM FITC-Hst-5, 30 minutes, 30°C, fixed exposure time 9 ms. On the procedure:
as §1, §2

The test system of assay [8] is C. albicans wild-type cells. As to the kind of experiment: Hst-5 localization in cells treated with latrunculin A or cytochalasin A. Type of assay: cell-based, Candida albicans. Particulars: cells pre-treated with 50 µM latrunculin A or 5 µM cytochalasin A for 60 minutes at room temperature, then 5 µM FITC-Hst-5, 30 minutes, 30°C. As to the method:
(§3) To depolarize F-actin, cells were treated with either 5 µM cytochalasin A or 50 µM latrunculin A (Sigma, St. Louis, MO) for 1 hour at room temperature. The control cells (wild-type and myo5) were treated with the equivalent volume of the DMSO solvent (0.5%). The cells were then exposed to 5 µM of FITC-Hst-5 for 30 minutes at 30°C. The cells were then washed twice with buffer containing NaN3 and NaF and analyzed by wide-field fluorescence microscopy and flow cytometry.

Assay [9] deals with C. albicans cells. In kind it is cell-based, Candida albicans. Particulars: 10 µM FITC-Hst-5, 30 minutes, 30°C, cell sorting, ~200 cells plated on YPD, overnight 30°C, triplicate cultures. On the procedure:
C. albicans cells were incubated for 30 minutes with 10 µM of FITC-Hst-5 at 30°C. The cells were then washed twice with 20 mM PBS buffer and under went flow cytometric cell sorting using the DAKO Cytomation MoFlo Flow Cytometer (DAKO, Glostrup, Denmark). The results were analyzed on a PC using the software package Summit (version 4.0) provided by DAKO. The cells were sorted by gating the two peaks of the histogram representing vacuolar and cytoplasmic localization of Hst-5. Cellular localization of Hst-5 was confirmed with fluorescence microscopy. The sorted cells were then plated onto YPD plates and incubated overnight at 30°C (data as a mean±1SD of triplicate cultures).

In assay [10] the test system is C. albicans cells. As to the kind of experiment: Concentration-dependent localization of FITC-Hst-5 by flow cytometry (FACS analysis). In kind it is cell-based, Candida albicans. Particulars: 30°C, ~10^6 cells/ml; for Percent of population: M2 (Hst-5 localized to the cytoplasm): high intensity peak; for Percent of population: M1 (Hst-5 localized to the vacuole): low intensity peak. On the procedure: as §1
(§4) The distribution of FITC-labeled Hst-5 over the cell population was investigated by using a dual laser fluorescence-activated cell sorter (BD FACSCalibur System, Becton Dickinson, San Jose, CA). The results were analyzed with the software package CellQuest Pro (version 5.1.1) provided by Beckton Dickinson.

A further assay has as its system C. albicans myo5 cells. As to the kind of experiment: FITC-Hst-5 localization in myo5 mutant cells by flow cytometry. In kind it is cell-based, Candida albicans. As to conditions: 10 µM FITC-Hst-5 and 10 µM FM4-64, 10 minutes, 30°C. As to the method: The intracellular localization of FITC-Hst-5 (5, 10, 20, and 50 µM) and FITC-m68 (5, 10, 20, 50, and 200 µM) was investigated either alone or in a double-labeling experiment using FM4-64 (Molecular Probes, Inc. Eugene, OR). […]
as §3, §4

The mark [11] stands for this setting: 50 and 200 µM FITC-m68, 30°C, 30 minutes.

With `C[C@H](NC(=O)[C@H](Cc1cnc[nH]1)NC(=O)[C@H](CO)NC(=O)[C@@H](N)CC(=O)O)C(=O)N[C@@H](CCCCN)C(=O)N[C@@H](CCCNC(=N)N)C(=O)N[C@@H](Cc1cnc[nH]1)C(=O)N[C@@H](Cc1cnc[nH]1)C(=O)NCC(=O)N[C@@H](Cc1ccc(O)cc1)C(=O)N[C@@H](CCCCN)C(=O)N[C@@H](CCCNC(=N)N)C(=O)N[C@@H](CCCCN)C(=O)N[C@@H](Cc1ccccc1)C(=O)N[C@@H](Cc1cnc[nH]1)C(=O)N[C@@H](CCC(=O)O)C(=O)N[C@@H](CCCCN)C(=O)N[C@@H](Cc1cnc[nH]1)C(=O)N[C@@H](Cc1cnc[nH]1)C(=O)N[C@@H](CO)C(=O)N[C@@H](Cc1cnc[nH]1)C(=O)N[C@@H](CCCNC(=N)N)C(=O)NCC(=O)N[C@@H](Cc1ccc(O)cc1)C(=O)O` [Hst-5, histatin-5], the lytic effect result in assay [1] is on record as “little lytic effect”. Further, the “resistance of the yeast to the peptide” value in the assay on C. glabrata [2] and with S. cerevisiae [4] was “marked resistance” each time. The cellular localization entry in [3] is recorded as “excluded from the lumen of vacuole-like membrane structures”; in the assay with C. glabrata [5], “predominantly localized to the vacuole”; in the assay with C. albicans cells [6] (5 µM FITC-Hst-5, 30 minutes, fluorescence microscopy), “mostly vacuolar localization”; in the assay with C. albicans cells [6] (20 µM FITC-Hst-5, pH 4.5, 30 minutes, 30°C), “a preponderance of cells had Hst-5 localized within the cytoplasm”; in the assay on C. albicans cells [6] (20 µM FITC-Hst-5, pH 9.0, 30 minutes, 30°C), “no cytoplasmic localization was observed”; in the assay with C. albicans cells [6] (50 µM FITC-Hst-5, 30 minutes, fluorescence microscopy) it was “largely cytoplasmic localization with little vacuolar fluorescence”. Moreover, the cellular localization entry is reported as “found bound to the cell surface” in the assay on S. cerevisiae [7] and “observed in the cytoplasm in a majority of the cells” in assay [8]. For the same compound, in the assay with C. albicans (combined with amphotericin B), the “killing of C. albicans in combination” value was “strong synergistic killing”. Further, the “concentration that kills C. albicans in vitro (physiological concentrations)” value with C. albicans (in vitro) was 15–30 µM. Also, the “colony formation of sorted cells with cytoplasmic Hst-5” value in the assay with C. albicans cells [9] was “none”.

As for “DSHAKRHHGYKREFHEKHHSHGGY [FITC-m68, FITC-labeled Hst-5 m68]”, the cytoplasmic localization entry in the assay on C. albicans cells [6] (5, 10 and 20 µM FITC-m68, 30°C, 30 minutes (data not shown)) is listed as “not observed”. In the assay on C. albicans cells [6] (setting [11]), the cellular localization result is on record as “localized to the vacuole in the majority of cells” and the cytoplasmic localization result is “only seen in a small portion of the cell population”.

“DSHAKRHHGYKREFHEKHHSHGGY [m68, variant of Hst-5 reported by Tsai et al.: lysine-13 replaced with glutamic acid and arginine 22 with glycine, reference compound]”: the “killing ability relative to Hst-5” value with C. albicans is “significant reduction”.

Consider “DSHAKRHHGYKRKFHEKHHSHRGY [FITC-Hst-5, FITC-labeled Hst-5]”, for which the “Percent of population: M2 (Hst-5 localized to the cytoplasm)” value was determined as 1.94% in the assay with C. albicans cells [10] (5 µM FITC-Hst-5, 30 minutes); 34.63% in the assay with C. albicans cells [10] (10 µM FITC-Hst-5, 30 minutes); 70.43% in the assay with C. albicans cells [10] (20 µM FITC-Hst-5, 30 minutes); 93.44% in the assay on C. albicans cells [10] (50 µM FITC-Hst-5, 30 minutes). Further, the “Percent of population: M1 (Hst-5 localized to the vacuole)” value with C. albicans cells [10] (5 µM FITC-Hst-5, 30 minutes) amounted to 96.02%; in the assay on C. albicans cells [10] (10 µM FITC-Hst-5, 30 minutes), 64.02%; in the assay on C. albicans cells [10] (20 µM FITC-Hst-5, 30 minutes) it was 29.69%; with C. albicans cells [10] (50 µM FITC-Hst-5, 30 minutes) it was 6.50%. The “population with cytoplasmic localization” value with C. albicans myo5 cells worked out at 19.01%. In the assay on C. albicans myo5 cells, the “population with plasma membrane localization” value is on record as 80.99%.
